According to PubChem BioAssay (NCI):
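Exposure lasted 48 hours, with cells grown in 96-well plates and compounds tested at five concentrations. At the TGI there is no net growth.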

Legend:
Assay in all cases: NCI-60 cell line screen, 48 h
[1] = tested on: 786-0 renal
[2] = tested on: A549 NSCLC
[3] = tested on: ACHN renal
[4] = tested on: BT-549 breast
[5] = tested on: CAKI-1 renal
[6] = tested on: CCRF-CEM leukemia
[7] = tested on: COLO 205 colon
[8] = tested on: DU-145 prostate
[9] = tested on: EKVX NSCLC
[10] = tested on: HCT-116 colon
[11] = tested on: HCT-15 colon
[12] = tested on: HL-60(TB) leukemia
[13] = tested on: HOP-92 NSCLC
[14] = tested on: HS 578T breast
[15] = tested on: HT29 colon
[16] = tested on: IGROV1 ovarian
[17] = tested on: KM12 colon
[18] = tested on: M14 melanoma
[19] = tested on: MALME-3M melanoma
[20] = tested on: MCF7 breast
[21] = tested on: MDA-MB-231 breast
[22] = tested on: MDA-MB-435
[23] = tested on: MDA-N
[24] = tested on: NCI-H226 lung
[25] = tested on: NCI-H23 lung
[26] = tested on: NCI-H460 lung
[27] = tested on: NCI-H522 lung
[28] = tested on: NCI/ADR-RES ovarian
[29] = tested on: OVCAR-5 ovarian
[30] = tested on: OVCAR-8 ovarian
[31] = tested on: PC-3 prostate
[32] = tested on: RPMI-8226 leukemia
[33] = tested on: RXF 393 renal
[34] = tested on: SF-268 CNS
[35] = tested on: SF-295 CNS
[36] = tested on: SF-539 CNS
[37] = tested on: SK-MEL-2 melanoma
[38] = tested on: SK-MEL-5 melanoma
[39] = tested on: SK-OV-3 ovarian
[40] = tested on: SN12C renal
[41] = tested on: SNB-19 CNS
[42] = tested on: SNB-75 CNS
[43] = tested on: SW-620 colon
[44] = tested on: T-47D breast
[45] = tested on: TK-10 renal
[46] = tested on: U251 CNS
[47] = tested on: UACC-257 melanoma
[48] = tested on: UACC-62 melanoma
[49] = tested on: UO-31 renal
[50] = tested on: A498 renal
[51] = tested on: HCC-2998 colon
[52] = tested on: HOP-62 NSCLC
[53] = tested on: K-562 leukemia
[54] = tested on: MOLT-4 leukemia
[55] = tested on: OVCAR-3 ovarian
[56] = tested on: OVCAR-4 ovarian
[57] = tested on: SK-MEL-28 melanoma
[58] = tested on: LOX IMVI melanoma

For `Cc1cc(C)c2cc(N)c(Cl)nc2n1`, the TGI [1] was over 100 µM, the TGI [2] was over 100 µM and the TGI [3] was over 100 µM. For the same molecule, the TGI [4] was over 100 µM, the TGI [5] was over 100 µM and the TGI [6] was over 100 µM. The TGI [7] was over 100 µM, the TGI [8] was over 100 µM and the TGI [9] was over 100 µM. For the same molecule, the TGI [10] was over 100 µM, the TGI [11] was over 100 µM and the TGI [12] was over 100 µM. For the same molecule, the TGI [13] was over 100 µM, the TGI [14] was over 100 µM and the TGI [15] was over 100 µM. For the same molecule, the TGI [16] was over 100 µM, the TGI [17] was over 100 µM and the TGI [18] was over 100 µM. For the same molecule, the TGI [19] was over 100 µM, the TGI [20] was over 100 µM and the TGI [21] was over 100 µM. The TGI [22] was over 100 µM, the TGI [23] was over 100 µM and the TGI [24] was over 100 µM. The TGI [25] was over 100 µM, the TGI [26] was over 100 µM and the TGI [27] was over 100 µM. The TGI [28] was over 100 µM, the TGI [29] was over 100 µM and the TGI [30] was over 100 µM. For the same molecule, the TGI [31] was over 100 µM, the TGI [32] was over 100 µM and the TGI [33] was over 100 µM. It also gave a TGI [34] of over 100 µM, a TGI [35] of over 100 µM and a TGI [36] of over 100 µM. The TGI [37] was over 100 µM, the TGI [38] was over 100 µM and the TGI [39] was over 100 µM. The TGI [40] was over 100 µM, the TGI [41] was over 100 µM and the TGI [42] was over 100 µM. The TGI [43] was over 100 µM, the TGI [44] was over 100 µM and the TGI [45] was over 100 µM. It also gave a TGI [46] of over 100 µM, a TGI [47] of over 100 µM and a TGI [48] of over 100 µM. The TGI [49] was over 100 µM.
`O=[N+]([O-])/C(C(Cl)=C(Cl)Cl)=C(\Nc1cccc2ccccc12)Sc1ccccc1` showed a TGI [1] of 38 µM, a TGI [50] of 23.5 µM and a TGI [2] of 71.6 µM. The TGI [3] was 28.1 µM, the TGI [4] was 35.4 µM and the TGI [5] was 29.1 µM. The TGI [6] was over 100 µM, the TGI [7] was 28.7 µM and the TGI [8] was 32 µM. For the same molecule, the TGI [9] was 42.2 µM, the TGI [51] was 45.2 µM and the TGI [10] was 56.3 µM. It also gave a TGI [11] of 33.1 µM, a TGI [52] of 50.5 µM and a TGI [14] of 27.2 µM. It also gave a TGI [15] of over 100 µM, a TGI [53] of over 100 µM and a TGI [17] of 32 µM. It also gave a TGI [18] of over 100 µM, a TGI [19] of 31.3 µM and a TGI [20] of 28 µM. For the same molecule, the TGI [21] was 23.4 µM, the TGI [22] was 33.4 µM and the TGI [23] was 81 µM. It also gave a TGI [54] of over 100 µM, a TGI [24] of 40.4 µM and a TGI [25] of 31.6 µM. For the same molecule, the TGI [26] was over 100 µM, the TGI [28] was 31 µM and the TGI [55] was 21.8 µM. The TGI [56] was 35.7 µM, the TGI [29] was 82.1 µM and the TGI [30] was 28.6 µM. For the same molecule, the TGI [31] was 27.4 µM, the TGI [32] was over 100 µM and the TGI [33] was 26.9 µM. For the same molecule, the TGI [34] was 26 µM, the TGI [35] was 37.1 µM and the TGI [36] was 37.4 µM. For the same molecule, the TGI [37] was 30.6 µM, the TGI [57] was 34 µM and the TGI [39] was over 100 µM. The TGI [40] was 69.3 µM, the TGI [41] was 40 µM and the TGI [42] was 43.4 µM. The TGI [43] was 24.9 µM, the TGI [44] was 44.8 µM and the TGI [46] was 23.4 µM. For the same molecule, the TGI [47] was 42.3 µM, the TGI [48] was 24.1 µM and the TGI [49] was 38.7 µM.
For `COc1cc(C2c3[nH]c4ccccc4c3[C@@H](Nc3ccc(F)cc3)[C@H]3COC(=O)N23)cc(OC)c1O` (stereo not given in full), the TGI [50] was 7.55 µM, the TGI [2] was 3.31 µM and the TGI [3] was 1.34 µM. The TGI [4] was 4.28 µM, the TGI [5] was 3.22 µM and the TGI [6] was 3.93 µM. The TGI [8] was 4.07 µM, the TGI [9] was over 10 µM and the TGI [51] was 3.34 µM. For the same molecule, the TGI [10] was over 10 µM, the TGI [11] was 5.35 µM and the TGI [52] was 3.42 µM. It also gave a TGI [13] of over 10 µM, a TGI [14] of 2.11 µM and a TGI [15] of over 10 µM. For the same molecule, the TGI [16] was 9.24 µM, the TGI [53] was over 10 µM and the TGI [17] was 6.5 µM. The TGI [58] was 3.26 µM, the TGI [18] was 9.55 µM and the TGI [19] was 7.28 µM. It also gave a TGI [20] of over 10 µM, a TGI [21] of over 10 µM and a TGI [22] of over 10 µM. For the same molecule, the TGI [23] was over 10 µM, the TGI [24] was 2.9 µM and the TGI [25] was 5.18 µM. The TGI [26] was 4.74 µM, the TGI [28] was over 10 µM and the TGI [55] was 6.09 µM. The TGI [56] was over 10 µM, the TGI [29] was 9.08 µM and the TGI [30] was over 10 µM. The TGI [31] was over 10 µM, the TGI [34] was 7.01 µM and the TGI [35] was 3.69 µM. For the same molecule, the TGI [36] was 3.17 µM, the TGI [57] was over 10 µM and the TGI [38] was 2.48 µM. The TGI [39] was 3.95 µM, the TGI [40] was 5.57 µM and the TGI [41] was 7.09 µM. For the same molecule, the TGI [42] was 6.08 µM, the TGI [43] was 5.74 µM and the TGI [44] was over 10 µM. It also gave a TGI [45] of 4.85 µM, a TGI [46] of 7.96 µM and a TGI [47] of over 10 µM. It also gave a TGI [48] of 4.6 µM and a TGI [49] of 2.67 µM.
